Laboratory results as given in US10106571B2, “HCV polymerase inhibitors” (priority 2013, dated 2018).

test system: HCV type 1b replicon (Huh-7 luc/neo, Huh-Luc); assay: Replicon assay, Huh-Luc cells with HCV type 1b replicon (stable), luciferase readout; assay type: cell-based; details: Hepatitis C virus, Huh-7, 72 h, Huh-Luc HCV 1b replicon, three days incubation, luciferase activity; read-out: EC50
Text: The compounds of formula I may be examined for activity in the inhibition of HCV RNA replication in a cellular assay aimed at identifying compounds that inhibit a HCV functional cellular replicating cell line, also known as HCV replicons. A suitable cellular assay is based on a bicistronic expression construct, as described by Lohmann et al. (1999), Science vol. 285 pp. 110-113 with modifications described by Krieger et al. (2001), Journal of Virology 75: 4614-4624, in a multi-target screening strategy.
The assay utilizes the stably transfected cell line Huh-7 luc/neo (hereafter referred to as Huh-Luc). This cell line harbors an RNA encoding a bicistronic expression construct comprising the wild type NS3-NS5B regions of HCV type 1b translated from an Internal Ribosome Entry Site (IRES) from encephalomyocarditis virus (EMCV), preceded by a reporter portion (FfL-luciferase), and a selectable marker portion (neo^R, neomycine phosphotransferase). The construct is bordered by 5′ and 3′ NTRs (non-translated regions) from HCV type 1b. Continued culture of the replicon cells in the presence of G418 (neo^R) is dependent on the replication of the HCV RNA. The stably transfected replicon cells that express HCV RNA, which replicates autonomously and to high levels, encoding inter alia luciferase, are used for screening the antiviral compounds.
The replicon cells are plated in 384 well plates in the presence of the test and control compounds which are added in various concentrations. Following an incubation of three days, HCV replication is measured by assaying luciferase activity (using standard luciferase assay substrates and reagents and a Perkin Elmer ViewLux™ ultraHTS microplate imager). Replicon cells in the control cultures have high luciferase expression in the absence of any inhibitor. The inhibitory activity of a compound on luciferase activity is monitored on the Huh-Luc cells, enabling a dose-response curve for each test compound. EC50 values are then calculated, which value represents the amount of the compound required to decrease the level of detected luciferase activity by 50%, or more specifically, the ability of the genetically linked HCV replicon RNA to replicate.

SMILES	EC50
O=c1ccn([C@@H]2O[C@H](CO)[C@@H](O)[C@]2(F)Cl)c(=O)[nH]1 [Example 1, 1-((2R,3S,4R,5R)-3-chloro-3-fluoro-4-hydroxy-5-(hydroxymethyl)tetrahydrofuran-2-yl)pyrimidine-2,4(1H,3H)-dione]	> 50000 nM
C[C@H](NP(=O)(OC[C@H]1O[C@@H](n2ccc(=O)[nH]c2=O)[C@@](F)(Cl)[C@@H]1O)Oc1ccccc1)C(=O)OC1CCCCC1 (stereo partly drawn) [Example 4, (2S)-cyclohexyl 2-(((((2R,3R,4S,5R)-4-chloro-5-(2,4-dioxo-3,4-dihydropyrimidin-1(2H)-yl)-4-fluoro-3-hydroxytetrahydrofuran-2-yl)methoxy)(phenoxy)phosphoryl)amino)propanoate]	90 nM
CC[C@@H](C)OC(=O)[C@H](C)NP(=O)(OC[C@H]1O[C@@H](n2ccc(=O)[nH]c2=O)[C@@](F)(Cl)[C@@H]1O)Oc1ccccc1 (some centres unmarked) [Example 5]	43 nM
CCOC(=O)[C@H](C)NP(=O)(OC[C@H]1O[C@@H](n2ccc(=O)[nH]c2=O)[C@@](F)(Cl)[C@@H]1O)Oc1ccccc1 (some centres unmarked) [Example 6]	79 nM
CCC(CC)COC(=O)[C@H](C)NP(=O)(OC[C@H]1O[C@@H](n2ccc(=O)[nH]c2=O)[C@@](F)(Cl)[C@@H]1O)Oc1ccccc1 (some centres unmarked) [Example 7]	55 nM
CCCCOC(=O)[C@H](C)NP(=O)(OC[C@H]1O[C@@H](n2ccc(=O)[nH]c2=O)[C@@](F)(Cl)[C@@H]1O)Oc1ccccc1 (some centres unmarked) [Example 8]	44 nM
CC(C)OC(=O)[C@H](C)NP(=O)(OC[C@H]1O[C@@H](n2ccc(=O)[nH]c2=O)[C@@](F)(Cl)[C@@H]1O)Oc1ccc2c(c1)OCO2 (some centres unmarked) [Example 9]	190 nM
COc1ccccc1OP(=O)(N[C@@H](C)C(=O)OC(C)C)OC[C@H]1O[C@@H](n2ccc(=O)[nH]c2=O)[C@@](F)(Cl)[C@@H]1O (some centres unmarked) [Example 10]	45 nM
COc1ccc(OP(=O)(N[C@@H](C)C(=O)OC(C)C)OC[C@H]2O[C@@H](n3ccc(=O)[nH]c3=O)[C@@](F)(Cl)[C@@H]2O)cc1 (some centres unmarked) [Example 11]	150 nM
CC(C)OC(=O)[C@H](C)NP(=O)(OC[C@H]1O[C@@H](n2ccc(=O)[nH]c2=O)[C@@](F)(Cl)[C@@H]1O)Oc1cccc(C2CC2)c1 (some centres unmarked) [Example 12]	180 nM
CC[C@H](C)OC(=O)[C@H](C)NP(=O)(OC[C@H]1O[C@@H](n2ccc(=O)[nH]c2=O)[C@@](F)(Cl)[C@@H]1O)Oc1ccccc1 (some centres unmarked) [Example 13]	61 nM
CCCOC(=O)[C@H](C)NP(=O)(OC[C@H]1O[C@@H](n2ccc(=O)[nH]c2=O)[C@@](F)(Cl)[C@@H]1O)Oc1ccccc1 (some centres unmarked) [Example 14]	76 nM
CC(C)OC(=O)[C@H](C)NP(=O)(OC[C@H]1O[C@@H](n2ccc(=O)[nH]c2=O)[C@@](F)(Cl)[C@@H]1O)Oc1cccc(C2CCC2)c1 (some centres unmarked) [Example 15]	90 nM
CC(C)OC(=O)[C@H](C)NP(=O)(OC[C@H]1O[C@@H](n2ccc(=O)[nH]c2=O)[C@@](F)(Cl)[C@@H]1O)Oc1cccc(C2(C)CC2)c1 (some centres unmarked) [Example 16]	91 nM
CC(C)OC(=O)[C@H](C)NP(=O)(OC[C@H]1O[C@@H](n2ccc(=O)[nH]c2=O)[C@@](F)(Cl)[C@@H]1O)Oc1ccc(C2(C)CC2)cc1 (some centres unmarked) [Example 17]	110 nM
COC[C@@H](C)OC(=O)[C@H](C)NP(=O)(OC[C@H]1O[C@@H](n2ccc(=O)[nH]c2=O)[C@@](F)(Cl)[C@@H]1O)Oc1ccccc1 (some centres unmarked) [Example 20]	65 nM
COCC(COC)OC(=O)[C@H](C)NP(=O)(OC[C@H]1O[C@@H](n2ccc(=O)[nH]c2=O)[C@@](F)(Cl)[C@@H]1O)Oc1ccccc1 (some centres unmarked) [Example 21]	210 nM
CCC(CC)OC(=O)[C@H](C)NP(=O)(OC[C@H]1O[C@@H](n2ccc(=O)[nH]c2=O)[C@@](F)(Cl)[C@@H]1O)Oc1ccccc1 (some centres unmarked) [Example 22]	58 nM
CC(C)OC(=O)[C@H](C)NP(=O)(OC[C@H]1O[C@@H](n2ccc(=O)[nH]c2=O)[C@@](F)(Cl)[C@@H]1O)Oc1cccc2ncccc12 (some centres unmarked) [Example 24]	1400 nM

same assay, conditions: Huh-Luc HCV 1b replicon, three days incubation, luciferase activity; read-out: EC50

SMILES	EC50
CC(C)OC(=O)[C@H](C)NP(=O)(OC[C@H]1O[C@@H](n2ccc(=O)[nH]c2=O)[C@@](F)(Cl)[C@@H]1O)Oc1ccccc1 (some centres unmarked) [Example 23]	5100 nM
